Values joined by “and” are separate entries in the source; they are usually repeats but may differ in a detail not shown here. Equal entries are not always repeated.
Experiments:
Format in all cases: physicochemical
[1] = XPS surface analysis of powders
Source text: The aim of the analysis is to identify the presence of magnesium stearate on the surface of a model of a co-micronised active agent. […] The aim was to show the contrast in surface coating efficiency. The model material, representing the micronised active agent particles, was micronised lactose.
The powders have been analyzed using both TOF-SIMS and XPS. TOF-SIMS provides a mass spectrum of the outermost 1 nm of the surface, and is used here to asses whether the magnesium stearate coverage of the lactose is complete or in patches. XPS provides a spectrum representative of the outermost 10 nm of the surface of the sample and is used here in comparison to the TOF-SIMS data to assess the depth of coverage of the magnesium stearate on the lactose surface.
XPS is a surface analytical technique that can quantify the amount of different chemical species in the outermost 10 nm of a surface. In the simplest form of analysis, XPS measures the relative amount of each element present. Quantitative elemental identification can be achieved down to 1 atom in 1000. AU elements present can be detected with the exception of hydrogen. Elemental analysis may be essential in determining the amount of a surface contaminant or to quantify any surface species with a unique elemental type.

[2] = Zeta potential (Zetasizer 3000HS, in cyclohexane); conditions: average of 10 measurements
Protocol: In addition, the powders were studied using the Zetasizer 3000HS instrument (Malvern Instruments Ltd, UK.) Each sample was tested in cyclohexane, and zeta potential measurements were obtained. Zetasizer measures the zeta potential. This is a measure of the electric potential on a particle in suspension in the hydrodynamic plane of shear. The results are summarized as follows: Each result is an average of 10 measurements.

[3] = Density Measurements (poured and tapped density)
Protocol: Approximately 5 g of material was placed in a measuring cylinder and the volume noted. The poured density was calculated. The measuring cylinder was tapped 100 times and the volume noted. Tapping was repeated to constant volume and the tapped density calculated. The equipment used was a […] Volumeter STA […].

[4] = single measurements (Measurement 1, Measurement 2)

Question: With `OC[C@H]1O[C@@H](O[C@H]2[C@H](O)[C@@H](O)C(O)O[C@@H]2CO)[C@H](O)[C@@H](O)[C@H]1O` (some centres unmarked) [Lactose] as the compound, how does the “Area % of C 1s Spectral Envelope, C—C” value ([1]; Mean) read?
Answer: 5.5%

Question: And the “Area % of C 1s Spectral Envelope, C—O” value ([1]; Mean)?
Answer: 64.3%

Question: What about the “Area % of C 1s Spectral Envelope, O—C—O” value ([1]; Mean) of the same compound?
Answer: 20.0%

Question: And the “Area % of C 1s Spectral Envelope, O—C═O” value ([1]; Mean)?
Answer: 8.7%

Question: And the “Relative Atomic Percentage Composition, C” value ([1]; Mean)?
Answer: 54.9%

Question: And the “Relative Atomic Percentage Composition, Mg” value ([1]; Mean)?
Answer: <0.1%

Question: And the “Relative Atomic Percentage Composition, O” value ([1]; Mean)?
Answer: 45.1%

Question: And the “Area % of C 1s Spectral Envelope, C—C” value [1, 4]?
Answer: 6.4% and 4.4%

Question: What about the “Area % of C 1s Spectral Envelope, C—O” value [1, 4] of the same compound?
Answer: 70.9% and 57.8%

Question: And the “Area % of C 1s Spectral Envelope, O—C—O” value [1, 4]?
Answer: 18.0% and 22.0%

Question: And the “Area % of C 1s Spectral Envelope, O—C═O” value [1, 4]?
Answer: 4.7% and 12.8%

Question: What about the “Relative Atomic Percentage Composition, C” value [1, 4] of the same compound?
Answer: 54.47% and 55.29%

Question: And the “Relative Atomic Percentage Composition, O” value [1, 4]?
Answer: 45.43% and 44.71%

Question: And the “Zeta Potential” value [2]?
Answer: 35.5 mV

Question: What does the source list for Salbutamol sulphate?
Answer: Number of Taps to Constant Volume ([3]; Stampf Volumeter STA V2003): 200; Poured Density ([3]; approximately 5 g powder in measuring cylinder): 0.19 g/ml; Tapped Density ([3]; tapped to constant volume): 0.24 g/mL

— patent publication US20080220078A1, “Pharmaceutical Formulations” (Vectura Limited, priority 2004, published 2008)
